Where only a bound is given, the exact number is not on record here.

Test [1] deals with ligand binding domain of human FXR (Homo sapiens (Human), UniProt Q96RI1). The test can be described thus: FXR ligand binding assay (LanthaScreen TR-FRET, SRC2-2 peptide recruitment). Particulars: for pEC50: -log EC50, concentration required to produce 50% activation; for Emax: extent of activation relative to GW4064, read-out: % Efficacy.
Test [2] has as its target human Farnesoid X receptor ligand-binding domain/Gal4 DNA binding domain chimera (Homo sapiens (Human), UniProt Q96RI1). The test can be described thus: Cell-based assay of FXR activation (FXR-UAS-bla HEK 293T beta-lactamase reporter). The following applies: cellular FXR beta-lactamase reporter assay; for EC50: FXR-UAS-bla HEK 293T cells, 16 h, pEC50 = -log EC50; for Emax: HEK-293T, extent of activation relative to GW4064, read-out: % Efficacy. The procedure, abridged:
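HEK 293T cells stably expressing a Gal4-fused human FXR LBD and a UAS-driven beta-lactamase reporter were incubated with serially diluted compounds for 16 h at 37 °C in phenol red-free DMEM with 2% charcoal-stripped FBS. CCF4 FRET read-out: excitation 409 nm, emission 447 nm. pEC50 comes from a 3-parameter logistic fit, and efficacy is given as % of GW4064.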

Sequence of human Farnesoid X receptor ligand-binding domain/Gal4 DNA binding domain chimera (Q96RI1 262-486, change not shown): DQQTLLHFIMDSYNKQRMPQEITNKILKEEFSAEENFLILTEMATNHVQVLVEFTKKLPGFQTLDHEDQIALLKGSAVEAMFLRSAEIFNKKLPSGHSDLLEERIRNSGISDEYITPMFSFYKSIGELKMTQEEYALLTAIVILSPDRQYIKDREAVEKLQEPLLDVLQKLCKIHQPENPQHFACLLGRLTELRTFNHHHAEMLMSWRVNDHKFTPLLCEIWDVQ
Sequence of human Farnesoid X receptor ligand-binding domain/Gal4 DNA binding domain chimera (P04386 1-147 partner): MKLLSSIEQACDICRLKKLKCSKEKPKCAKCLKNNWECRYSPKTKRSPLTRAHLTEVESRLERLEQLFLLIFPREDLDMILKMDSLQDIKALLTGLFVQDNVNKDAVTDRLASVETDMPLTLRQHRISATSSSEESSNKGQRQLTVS
Sequence of ligand binding domain of human FXR (Q96RI1 262-486): as the sequence (Q96RI1 262-486, change not shown) above

As to `O=C(O)c1cc(F)c2nc(N3C[C@@H]4C[C@H]3C[C@H]4OCc3c(-c4ccccc4O)noc3C3CC3)sc2c1` [Compound I-291, 2-((1S,4S,5R)-5-((5-cyclopropyl-3-(2-hydroxyphenyl)isoxazol-4-yl)methoxy)-2-azabicyclo[2.2.1]heptan-2-yl)-4-fluorobenzo[d]thiazole-6-carboxylic acid], in test [1], the pEC50 (in general, the negative decadic logarithm of the EC50, by convention in mol/L) came out at 6.1 and the Emax turned out to be 120%. For the same molecule, the EC50 (commonly the concentration that produces a half-maximal response) in test [2] was < 31.6 nM.

With `O=C(O)c1cc(F)c2nc(N3C[C@@H]4C[C@H]3C[C@H]4OCc3c(-c4cccc(O)c4)noc3C3CC3)sc2c1` [Compound I-292, 2-((1S,4S,5R)-5-((5-cyclopropyl-3-(3-hydroxyphenyl)isoxazol-4-yl)methoxy)-2-azabicyclo[2.2.1]heptan-2-yl)-4-fluorobenzo[d]thiazole-6-carboxylic acid], in test [1], the pEC50 came out at 6.5 and the Emax was found to be 120%. The EC50 in test [2] is < 31.6 nM.

Take `O=C(O)c1cc(F)c2nc(N3C[C@@H]4C[C@H]3C[C@H]4OCc3c(-c4ccc(O)cc4)noc3C3CC3)sc2c1` [Compound I-293, 2-((1S,4S,5R)-5-((5-cyclopropyl-3-(4-hydroxyphenyl)isoxazol-4-yl)methoxy)-2-azabicyclo[2.2.1]heptan-2-yl)-4-fluorobenzo[d]thiazole-6-carboxylic acid]: in test [1], the pEC50 is given as >4.5. Besides, the EC50 in test [2] was < 31.6 nM.

In the case of `CCc1cc(C(=O)O)cc2sc(N3C(=O)[C@@H]4C[C@H]3C[C@H]4OCc3c(-c4c(Cl)cccc4Cl)noc3C3CC3)nc12` [Compound I-294, 2-[(1S,4R,5R)-5-{[5-cyclopropyl-3-(2,6-dichlorophenyl)-1,2-oxazol-4-yl]methoxy}-3-oxo-2-azabicyclo[2.2.1]heptan-2-yl]-4-ethyl-1,3-benzothiazole-6-carboxylic Acid], in test [1], the pEC50 worked out at 8.2 and the Emax was 82%. Further, in test [2], the Emax was found to be 104% and the EC50 was 2.51 nM.

With `O=C(O)c1cc(C2CC2)c2nc(N3C(=O)[C@@H]4C[C@H]3C[C@H]4OCc3c(-c4c(Cl)cccc4Cl)noc3C3CC3)sc2c1` [Compound I-295, 4-cyclopropyl-2-((1S,4R,5R)-5-((5-cyclopropyl-3-(2,6-dichlorophenyl)isoxazol-4-yl)methoxy)-3-oxo-2-azabicyclo[2.2.1]heptan-2-yl)benzo[d]thiazole-6-carboxylic acid], in test [1], the pEC50 stood at 8.2 and the Emax is 98%. In test [2], the Emax came out at 105% and a half-maximal effect (EC50) was put at 1 nM.

Consider `O=C(O)c1cc(C2CCC2)c2nc(N3C(=O)[C@@H]4C[C@H]3C[C@H]4OCc3c(-c4c(Cl)cccc4Cl)noc3C3CC3)sc2c1` [Compound I-296, 4-cyclobutyl-2-((1S,4R,5R)-5-((5-cyclopropyl-3-(2,6-dichlorophenyl)isoxazol-4-yl)methoxy)-3-oxo-2-azabicyclo[2.2.1]heptan-2-yl)benzo[d]thiazole-6-carboxylic acid], for which, in test [1], the pEC50 came out at 7.6 and the Emax came out at 90%. In test [2], the Emax worked out at 109% and the EC50 was 10 nM.

In the case of `O=C(O)c1cc(OC2CC2)c2nc(N3C(=O)[C@@H]4C[C@H]3C[C@H]4OCc3c(-c4c(Cl)cccc4Cl)noc3C3CC3)sc2c1` [Compound I-297, 4-cyclopropoxy-2-((1S,4R,5R)-5-((5-cyclopropyl-3-(2,6-dichlorophenyl)isoxazol-4-yl)methoxy)-3-oxo-2-azabicyclo[2.2.1]heptan-2-yl)benzo[d]thiazole-6-carboxylic acid], in test [1], the negative-log EC50 (pEC50) came to 9 and the Emax was found to be 77%. Further, in test [2], the Emax turned out to be 110% and a half-maximal response (EC50) required 0.316 nM.

For the molecule `O=C(O)c1cc(C2CCOCC2)c2nc(N3C(=O)[C@@H]4C[C@H]3C[C@H]4OCc3c(-c4c(Cl)cccc4Cl)noc3C3CC3)sc2c1` [Compound I-298, 2-((1S,4R,5R)-5-((5-cyclopropyl-3-(2,6-dichlorophenyl)isoxazol-4-yl)methoxy)-3-oxo-2-azabicyclo[2.2.1]heptan-2-yl)-4-(tetrahydro-2H-pyran-4-yl)benzo[d]thiazole-6-carboxylic acid], the Emax in test [1] came to 133%; in test [2], 112%. Moreover, the EC50 in test [2] is 7.94 nM.

`O=C(O)c1cc(C2CCOC2)c2nc(N3C(=O)[C@@H]4C[C@H]3C[C@H]4OCc3c(-c4c(Cl)cccc4Cl)noc3C3CC3)sc2c1` (stereo partly drawn) [Compound I-299, 2-((1S,4R,5R)-5-((5-cyclopropyl-3-(2,6-dichlorophenyl)isoxazol-4-yl)methoxy)-3-oxo-2-azabicyclo[2.2.1]heptan-2-yl)-4-(tetrahydrofuran-3-yl)benzo[d]thiazole-6-carboxylic acid]: in test [1], the pEC50 is reported as 8 and the Emax stood at 112%. In addition, in test [2], the Emax was determined as 108% and the EC50 was 3.98 nM.

In the case of `O=C(O)c1cc(C2CC3(CCOCC3)C2)c2nc(N3C(=O)[C@@H]4C[C@H]3C[C@H]4OCc3c(-c4c(Cl)cccc4Cl)noc3C3CC3)sc2c1` [Compound I-300, 2-((1S,4R,5R)-5-((5-cyclopropyl-3-(2,6-dichlorophenyl)isoxazol-4-yl)methoxy)-3-oxo-2-azabicyclo[2.2.1]heptan-2-yl)-4-(7-oxaspiro[3.5]nonan-2-yl)benzo[d]thiazole-6-carboxylic acid], in test [1], the pEC50 is 1 and the Emax came out at 82%. Further, in test [2], the Emax amounted to 117% and the midpoint of the response, the EC50, lay at 100 nM.

With `O=C(O)c1cc(O[C@H]2CCOC2)c2nc(N3C(=O)[C@@H]4C[C@H]3C[C@H]4OCc3c(-c4c(Cl)cccc4Cl)noc3C3CC3)sc2c1` [Compound I-302, 2-((1S,4R,5R)-5-((5-cyclopropyl-3-(2,6-dichlorophenyl)isoxazol-4-yl)methoxy)-3-oxo-2-azabicyclo[2.2.1]heptan-2-yl)-4-(((S)-tetrahydrofuran-3-yl)oxy)benzo[d]thiazole-6-carboxylic acid], in test [1], the pEC50 was 8.4 and the Emax was determined as 106%. Moreover, in test [2], the Emax is 114% and the response was half-maximal at 39.8 nM (EC50).

With `O=C(O)CCc1ccc(N2C(=O)[C@@H]3C[C@H]2C[C@H]3OCc2c(-c3c(Cl)cccc3Cl)noc2C2CC2)cc1` [Compound I-303, 3-{4-[(1S,4R,5R)-5-{[5-cyclopropyl-3-(2,6-dichlorophenyl)-1,2-oxazol-4-yl]methoxy}-3-oxo-2-azabicyclo[2.2.1]heptan-2-yl]phenyl}propanoic Acid], in test [1], the pEC50 is reported as 7.4 and the Emax turned out to be 132%. In addition, in test [2], the Emax was determined as 98% and the EC50 is 6.31 nM.

Turning to `O=C(O)CCc1ccc(N2C(=O)[C@@H]3C[C@H]2C[C@H]3OCc2c(-c3c(Cl)cccc3Cl)noc2C2CC2)c(F)c1` [Compound I-304, 3-{4-[(1S,4R,5R)-5-{[5-cyclopropyl-3-(2,6-dichlorophenyl)-1,2-oxazol-4-yl]methoxy}-3-oxo-2-azabicyclo[2.2.1]heptan-2-yl]-3-fluorophenyl}propanoic Acid], in test [1], the negative-log EC50 (pEC50) came out at 6.6 and the Emax stood at 118%. In test [2], the Emax turned out to be 107% and a half-maximal effect (EC50) was put at 100 nM.

For the molecule `O=C(O)CCc1ccc(N2C(=O)[C@@H]3C[C@H]2C[C@H]3OCc2c(-c3c(Cl)cccc3Cl)noc2C2CC2)cc1F` [Compound I-305, 3-{4-[(1S,4R,5R)-5-{[5-cyclopropyl-3-(2,6-dichlorophenyl)-1,2-oxazol-4-yl]methoxy}-3-oxo-2-azabicyclo[2.2.1]heptan-2-yl]-2-fluorophenyl}propanoic Acid], in test [1], the pEC50 stood at 7.5 and the Emax was determined as 121%. Further, in test [2], the Emax was 98% and the EC50 is 3.16 nM.

On to `O=C(O)c1ccc(N2C(=O)[C@@H]3C[C@H]2C[C@H]3OCc2c(-c3c(F)cccc3Cl)noc2C2CC2)cc1` [Compound I-306, 4-[(1S,4R,5R)-5-{[3-(2-chloro-6-fluorophenyl)-5-cyclopropyl-1,2-oxazol-4-yl]methoxy}-3-oxo-2-azabicyclo[2.2.1]heptan-2-yl]benzoic Acid], for which, in test [1], the pEC50 is on record as 8.2 and the Emax stood at 171%. For the same molecule, in test [2], the Emax amounted to 108% and the EC50 was 2.51 nM.

Turning to `Cc1cccc(F)c1-c1noc(C2CC2)c1CO[C@@H]1C[C@@H]2C[C@H]1C(=O)N2c1ccc(C(=O)O)cc1` [Compound I-307, 4-[(1S,4R,5R)-5-{[5-cyclopropyl-3-(2-fluoro-6-methylphenyl)-1,2-oxazol-4-yl]methoxy}-3-oxo-2-azabicyclo[2.2.1]heptan-2-yl]benzoic Acid], in test [1], the pEC50 was found to be 7.4 and the Emax was 154%. In test [2], the Emax was determined as 110% and the EC50 is 10 nM.

With `Cc1cccc(C)c1-c1noc(C2CC2)c1CO[C@@H]1C[C@@H]2C[C@H]1C(=O)N2c1ccc(C(=O)O)cc1` [Compound I-308, 4-[(1S,4R,5R)-5-{[5-cyclopropyl-3-(2,6-dimethylphenyl)-1,2-oxazol-4-yl]methoxy}-3-oxo-2-azabicyclo[2.2.1]heptan-2-yl]benzoic Acid], in test [1], the pEC50 worked out at 7.6 and the Emax stood at 150%. For the same molecule, in test [2], the Emax turned out to be 99% and it took 3.98 nM to reach a half-maximal effect (EC50).

As to `Cc1cccc(Cl)c1-c1noc(C2CC2)c1CO[C@@H]1C[C@@H]2C[C@H]1C(=O)N2c1ccc(C(=O)O)cc1` [Compound I-309, 4-[(1S,4R,5R)-5-{[3-(2-chloro-6-methylphenyl)-5-cyclopropyl-1,2-oxazol-4-yl]methoxy}-3-oxo-2-azabicyclo[2.2.1]heptan-2-yl]benzoic Acid], in test [1], the pEC50 is reported as 8.2 and the Emax stood at 157%. In test [2], the Emax was 104% and it took 1.58 nM to reach a half-maximal effect (EC50).

For the origin of these results see patent US10793568B2, “Hormone receptor modulators for treating metabolic conditions and disorders” (ARDELYX, INC., priority 2016, dated 2020).
